The results in this text go back to patent publication US20060154252A1, “Methods and composition for identifying therapeutic agents of atherosclerotic plaque lesions” (priority 2002, published 2006).

Entries after “also recorded” stand apart in the source; their conditions may differ.

This experiment has as its system Differentiated-THP-1. The experiment can be described thus: Vesicle formation in the presence of fatty acids (Nile Red staining). Format: cell-based. As to conditions: 200 μM albumin-coupled fatty acid, 24 hours, differentiated macrophage permanent cell line. As for the experimental part:
Fatty acids can be prepared according to Spector A A and Hoak J C, (1969 Anal. Biochem, 32: 297-302): Breifly, 100 μmol of fatty acid (12:0, 16:0, 18:0 and 20:0) can be dissolved in 7.5 ml of hexane containing 400 mg of Celite (Sigma). The solvent is then evaporated under nitrogen by continuous magnetic stirring. The fatty acid-coated particles are then mixed with fatty acid free albumin, in serum free medium for 1 hour at room temperature under nitrogen. After centrifugation, the supernatnts containing fatty acid coupled to albumin is conserved.
Vesicle formation in the presence of fatty acids was induced as follows: briefly, THP1 differentiation was induced in a medium supplemented with 10^−7 M of phorbol 12-myristate-13-acetate (Sigma) for 24 hours at 37° C., 5% CO2. Differentiated-THP-1 was incubated with or without 200 μM of fatty acid-BSA complexes for 24 hours at 37° C., 5% CO2. After washing and paraformaldhehyde fixation, cells were stained with Nile Red (1 μg/ml) and Hoechst 33342 (10 μg/ml) solution for 10 minutes at RT. After washing, images of cells staining with Nile Red and Hoechst 33342 were automatized captured using a fluorescence microscope controlled by MetaMorph Software (Universal Imaging) and coupled with a CCD camera. After images analysis, results were expressed as the sum of Nile red intensity per cells number.

In the case of `CCCCCCCCCCCCCCCCCC(=O)O` [stearic acid], the “induction of lipid vesicles / foam cell formation (FIG. 9)” value is listed as “Formation of foam cells; also recorded: induction of lipid vesicles”.
